Reference: patent US10251937B2, “Retro-inverso analogs of spadin display increased antidepressant effects” (MEDINCELL, priority 2014, dated 2019)
Square brackets hold non-standard residues; d marks the D form. Peptide text beside a SMILES is read from it.

What was measured:
human-IKS current = human-IKS current (Homo sapiens, UniProt P51787); experiment: Cardiac IKs current, whole cell patch clamp in HEK-IKS cell line
Description: All electrophysiological recordings were performed in whole cell configuration of the patch clamp technique. Each current was evaluated by using a RK 400 patch clamp amplifier (Axon Instrument, USA), low-pass filtered at 3 kHz and digitized at 10 kHz using a 12-bit analog-to-digital converter digidata (1322 series, Axon Instrument, USA). All current amplitudes are expressed in current densities. Results were expressed as mean±standard error of the mean (SEM). […] The bath solution contained 150 mM NaCl, 5 mM KCl, 3 mM MgCl2, 1 mM CaCl2 and 10 mM HEPES adjusted to pH 7.4 with NaOH. The pipette solution contained 155 mM KCl, 3 mM MgCl2, 5 mM EGTA and 10 mM HEPES adjusted to pH 7.2 with KOH. […] All experiments were performed at room temperature (21-22° c.). Stimulation protocols and data acquisition were carried out using a microcomputer (Dell Pentium) with a commercial software and hardware (pClamp 8.2). Currents were recorded by voltage clamp steps to membrane potentials of −100 to +60 mV in 20 mV steps applied from a holding potential of −80 mV. Duration of depolarization pulses were 0.825 ms, and the pulse cycling rate was 5 sec. […] Cells were continuously superfused with a microperfusion system. […] IKS currents were activated by voltage clamp steps of membrane potentials from −100 to +100 mV in 20 mV steps applied from a holding potential of −80 mV. Tail currents were generated by repolarization to −40 mV. Duration of both depolarization and repolarization pulses were 2.4 s, and the pulse cycling rate was 10 s. […] The amplitudes of IKS and IKR currents were calculated at both the end of the first pulse and the peak of the tail pulse.

C57Bl/6J mice = experiment: Seizure induced by kainate; type: in vivo; conditions: for effect against epilepsy seizure triggered by kainate: kainate 25 mg/Kg
Description: Kainate solutions were prepared in a solution of 140 mM NaCl (saline solution). […] Mice (n=10 per group) were monitored during 2 h for onset and extent of seizures. Six levels of seizure severity were defined as follows: 1—immobility, 2—head/neck movements, 3—clonic unilateral activity, 4—clonic bilateral activity, 5—generalized convulsions, and 6—death. Seizure severity was blindly scored (Moha ou Maati, H. et al. A human TREK-1/HEK cell line: a highly efficient screening tool for drug development in neurological diseases. PLoS One 6, e25602, (2011)). The seizure index was calculated by averaging the points for seizure activity in each group (n=10 per treatment).

TREK-1 channels = biological target: T1, TREK-1 channels (Homo sapiens, UniProt O95069); experiment: TREK-1 current inhibition, whole cell patch clamp on h-TREK-1/HEK cell line; type: cell-based
T1 construct: expressed in transfected cells
T1 sequence (O95069 1-426): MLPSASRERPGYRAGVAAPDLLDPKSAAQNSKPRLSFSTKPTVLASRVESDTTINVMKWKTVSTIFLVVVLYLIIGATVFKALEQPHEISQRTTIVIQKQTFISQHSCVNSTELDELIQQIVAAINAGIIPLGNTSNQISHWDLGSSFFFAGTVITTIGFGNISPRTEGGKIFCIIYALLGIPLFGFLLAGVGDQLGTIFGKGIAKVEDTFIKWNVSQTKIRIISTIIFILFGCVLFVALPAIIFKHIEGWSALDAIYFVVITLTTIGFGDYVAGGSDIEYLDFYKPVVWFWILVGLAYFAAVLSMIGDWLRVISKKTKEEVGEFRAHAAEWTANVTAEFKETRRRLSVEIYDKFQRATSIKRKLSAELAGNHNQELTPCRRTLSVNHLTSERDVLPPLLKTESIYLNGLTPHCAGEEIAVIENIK
Description: The human-TREK-1/HEK293 cell line (h-TREK-1/HEK) (Moha ou Maati, H. et al. (2011). PloS one, 6 (10), e25602) and HEK-IKS cell line (Ducroq, J. et al, (2010) Br J Pharmacol, 159(1):93-101) were grown in the presence of 0.5 mg/mL G418 in Dulbecco's modified Eagle's medium supplemented with 10% (v/v) heat inactivated fetal bovine serum containing 1% (v/v) penicillin/streptomycin in an atmosphere of 95% air/5% CO2.
All electrophysiological experiments were performed on h-TREK-1/HEK cells seeded at a density of 20 000 cells/35-mm dish after 2-6 days of culture. All electrophysiological recordings were performed in whole cell configuration of the patch clamp technique. Each current was evaluated by using a RK 400 patch clamp amplifier (Axon Instrument, USA), low-pass filtered at 3 kHz and digitized at 10 kHz using a 12-bit analog-to-digital converter digidata (1322 series, Axon Instrument, USA). All current amplitudes are expressed in current densities. Results were expressed as mean±standard error of the mean (SEM). […] The bath solution contained 150 mM NaCl, 5 mM KCl, 3 mM MgCl2, 1 mM CaCl2 and 10 mM HEPES adjusted to pH 7.4 with NaOH. The pipette solution contained 155 mM KCl, 3 mM MgCl2, 5 mM EGTA and 10 mM HEPES adjusted to pH 7.2 with KOH. TREK-1 currents were evaluated in the presence of a cocktail of potassium channel inhibitors (K+ blockers: 3 mM 4-aminopyridine (4-AP), 10 mM tetraethylammonium (TEA), 10 μM glibenclamide, 100 nM apamin and 50 nM charybdotoxin). All experiments were performed at room temperature (21-22° c.). Stimulation protocols and data acquisition were carried out using a microcomputer (Dell Pentium) with a commercial software and hardware (pClamp 8.2). Currents were recorded by voltage clamp steps to membrane potentials of −100 to +60 mV in 20 mV steps applied from a holding potential of −80 mV. Duration of depolarization pulses were […], and the pulse cycling rate was 5 sec. TREK-1 current amplitudes were evaluated at the end of the stimulation pulses. Cells were continuously superfused with a microperfusion system. Inhibitory effects of spadin and analogs were performed on arachidonic acid pre-activated TREK-1 currents. Spadin and analogs were tested at the unique dose of 100 nM. For both Analog 3 (SEQ ID:4) and Analog 8 (SEQ ID:9) concentration-dependant inhibitions were performed by applying concentrations ranging between 1 nM to 1 μM. IKS currents were activated by voltage clamp steps of membrane potentials from −100 to +100 mV in 20 mV steps applied from a holding potential of −80 mV. Tail currents were generated by repolarization to −40 mV. Duration of both depolarization and repolarization pulses were 2.4 s, and the pulse cycling rate was 10 s. IKR currents were activated by voltage clamp steps of membrane potentials from −100 to +100 mV in 10 mV steps applied from a holding potential of […] and tail currents were generated by a repolarization to […]. Duration of both depolarization and repolarization pulses were 1 s, and the pulse cycling rate was 5 s. The amplitudes of IKS and IKR currents were calculated at both the end of the first pulse and the peak of the tail pulse.
Neuropharmacology 62, 278, (2012)) was used as reference.

[1] = 0 mV, in the presence of 10 μM, n=5

SMILES: CC[C@@H](C)[C@@H](NC(=O)CNC(=O)[C@H](NC(=O)[C@@H](CO)NC(=O)[C@@H](Cc1c[nH]c2ccccc12)NC(=O)CNC(=O)[C@@H](CC(C)C)NC(=O)[C@@H](CCCNC(=N)N)NC(C)=O)C(C)C)C(=O)N1CCC[C@@H]1C(=O)NCC(=O)N[C@H](CO)C(=O)N[C@H](Cc1c[nH]c2ccccc12)C(=O)N[C@H](CCCNC(=N)N)C(=O)N1CCC[C@@H]1C(=O)N[C@H](CC(C)C)C(=O)N1CCC[C@@H]1C(=O)N[C@H](C)C(N)=O [Analog 3, Ac-rlGwsvGipGswrplpa-NH2] (Ac-[dR][dL]G[dW][dS][dV]G[dI][dP]G[dS][dW][dR][dP][dL][dP][dA]-NH2)
- IKS tail current density (human-IKS current; [1]): 8.33±2.06 pA/pF
- IKs current density at the end of pulses (human-IKS current; [1]): 17.58±4.03 pA/pF
- effect on currents generated by IKS channels expressed in HEK cells (human-IKS current; 10 μM): did not modify currents
- effect against epilepsy seizure triggered by kainate (C57Bl/6J mice; 1 μg/Kg i.v.): no protective effect
- effect against epilepsy seizure triggered by kainate (C57Bl/6J mice; 10 μg/Kg i.v.): important protective effect
- mice among 10 that reached the two less severe stages of epilepsy seizures (immobility, head or neck movements) (C57Bl/6J mice; 10 μg/Kg i.v., kainate 25 mg/Kg i.p.): two
- blockade effect on TREK-1 channel activity compared to spadin (TREK-1 channels; 100 nM, n=10 to 12): increased blockade effect
- higher affinity for TREK-1 channels than spadin (TREK-1 channels; compared to spadin IC50): 6 fold
